Experimental data taken from patent US5550110A, “Endothelin Antagonists II” (Warner-Lambert Company, priority 1994, dated 1996).
Square brackets hold non-standard residues; d marks the D form. Peptide text beside a SMILES is read from it. * marks the point of attachment. dGly(5-dibenzosuberyl) = N[C@@H](C(=O)O)C1c2ccccc2CCc2ccccc21; For = O=C*

Key:
[1] = target: T1, endothelin receptor (ETB), rat cerebellar membranes (Rattus norvegicus, UniProt P21451); experiment: Endothelin Receptor Binding Assay-B (ERBA-B), [125I]-ET-1 binding in rat cerebellar membranes; settings: [125I]-ET-1 25 pM, read-out: ERRA-B IC50
T1 construct: thaw one aliquot of frozen rat cerebellar membranes (2 mg protein in 0.5 mL); from tissue; host or cells: rat cerebellum (membranes)
T1 sequence (P21451 27-442): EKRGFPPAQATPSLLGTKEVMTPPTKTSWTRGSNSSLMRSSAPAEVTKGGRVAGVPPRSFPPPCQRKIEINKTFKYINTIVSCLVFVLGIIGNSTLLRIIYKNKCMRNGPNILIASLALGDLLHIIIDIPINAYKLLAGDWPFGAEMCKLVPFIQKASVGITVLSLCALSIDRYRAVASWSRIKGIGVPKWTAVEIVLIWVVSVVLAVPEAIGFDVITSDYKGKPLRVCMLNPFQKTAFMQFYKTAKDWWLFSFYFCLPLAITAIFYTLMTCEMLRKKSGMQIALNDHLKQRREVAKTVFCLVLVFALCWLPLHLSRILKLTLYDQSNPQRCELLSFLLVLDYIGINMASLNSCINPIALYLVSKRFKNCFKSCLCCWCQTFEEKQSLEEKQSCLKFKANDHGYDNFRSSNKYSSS
Method: Endothelin Receptor Binding Assay-B (ERBA-B) [^125 I]-ET-1 Binding in Rat Cerebellar Membranes
The tissue is made up of 20 mM tris(hydroxymethyl)aminomethane hydrochloride (Trizma) buffer, 2 mM ethylenediaminetetra acetate, 100 μM phenylmethylsulfonyl fluoride.
First, thaw one aliquot of frozen rat cerebellar membranes (2 mg protein in 0.5 mL). Next, add 0.5 mL membrane aliquot to 4.5 mL cold tissue buffer, polytron at 7,500 revolutions per minute for 10 seconds. Finally, dilute tissue suspension 1/100 (0.1 mL suspension+9.9 mL tissue buffer), polytron again, and place ice.
Medium 199 with Hank's salts plus 25 mM Hepes+1 mg/mL bovine serum albumin.
Amersham [^125 I]-ET-1 (aliquots of 2×10^6 cpm per […] aliquot of [^125 I]-ET-1 with 5.2 mL dilution buffer, place on ice until use (final concentration will be 20,000 cpm per tube, or 25 pM).
Add 50 μL each of cold [^125 ]-ET-1 and competing ligand to tubes on ice. Mix in 150 μL of tissue to each tube, vortex briefly, then tap to force all liquids to bottom (total assay volume=250 μL). Then place the tubes in a 37° C. water bath for 2 hours.
Add 2.5 mL cold wash buffer (50 mM Trizma buffer) to each tube, filter, and then wash tube with additional 2.5 mL wash buffer and add to filter. Finally, wash filters with an additional 2.5 mL of cold wash buffer.
Count filters for radioactivity in gamma counter.

[2] = target: T2, rat recombinant ETB receptor (CHO cells) (Rattus norvegicus, UniProt P21451); experiment: Inhibition of ET-1 stimulated arachidonic acid release (AAR-B); assay type: cell-based; settings: ET-1 0.3 nM
T2 construct: expressed in transfected cells; host or cells: CHO cells
T2 sequence (P21451 27-442): T1 sequence (P21451 27-442)
Method: (§1) In Vitro Inhibition of ET-1 Stimulated Arachidonic Acid Release in Cultured Rabbit Vascular Smooth Muscle Cells (AAR-A) or CHO Cells Expressing Rat Recombinant ETB Receptor (AAR-B) by Compounds of Formula I
(§2) Antagonist activity is measured by the ability of added compounds to reduce endothelin-stimulated arachidonic acid release in cultured vascular smooth muscle cells as arachidonic acid release (AAR). [^3 H] Arachidonic Acid Loading Media (LM) is DME/F12+0.5% fetal calf serum (FCS)×0.25 mCi/mL [^3 H] arachidonic acid (Amersham). Confluent monolayers of cultured rabbit renal artery vascular smooth muscle cells (AAR-A) or CHO cells expressing rat recombinant ETB receptor (AAR-B) were incubated in 0.5 mL of the LM over 18 hours, at 37° C., in 5% CO2. The LM was aspirated and the cells were washed once with the assay buffer (Hank's balanced salt solution [BSS]+10 mM HEPES+fatty acid-free BSA (1 mg/mL)), and incubated for 5 minutes with 1 mL of the prewarmed assay buffer. This solution was aspirated, followed by an additional 1 mL of prewarmed assay buffer, and further incubated for another 5 minutes. A final 5-minute incubation was carried out in a similar manner. The same procedure was repeated with the inclusion of 10 μL of the test compound (1 nM to 1 μM) and 10 μL ET-1 (0.3 nM) and the incubation was extended for 30 minutes. This solution was then collected, […] of scintillation cocktail was added, and the amount of [^3 H] arachidonic acid was determined in a liquid scintillation counter.

[3] = tested on: endothelin receptor (ETA), rabbit renal artery vascular smooth muscle cells; experiment: Endothelin Receptor Binding Assay-A (ERBA-A), intact cell binding of [125I]-ET-1; settings: [125I]-ET-1 25 pM
Method: The compounds of Formula I are valuable antagonists of endothelin. […] Thus, the compounds of Formula I were tested for their ability to inhibit [^125 I]-ET-1([^125 I]-Endothelin-1) binding in a receptor assay according to the following procedures: Endothelin Receptor Binding Assay-A (ERBA-A) Intact Cell Binding of [^125 I]-ET-1 The cells used were rabbit renal artery vascular smooth muscle cells grown in a 48-well dish (1 cm^2) (confluent cells). The assay buffer was a medium 199 containing Hanks salts and 25 mM Hepes buffer (Gibco 380-2350AJ), supplemented with penicillin/streptomycin/fungizone (0.5%) and bovine serum albumin (1 mg/mL). Amersham radioiodinated endothelin-1 [^125 I]-ET-1 was used at final concentration of 20,000 cpm/0.25 mL (25 pM). […] Second, remove the assay buffers, place the dish on ice, and add 150 μL of cold assay buffer described above to each well. Third, add […] each of cold [^125 I]-ET-1 and competing ligand to the solution (at the same time if possible). Next, place dish in a 37° C. water bath for about 2 hours and gently agitate the dish every 15 minutes. Discard the radioactive incubation mixture in the sink and wash wells 3 times with 1 mL of cold phosphate buffered saline. Last, add […] of 0.25 molar sodium hydroxide, agitate for 1 hour on a rotator, and then transfer the sodium hydroxide extract to gamma counting tubes and count the radioactivity.

[4] = tested on: endothelin receptor, cultured rabbit renal artery vascular smooth muscle cells; experiment: Inhibition of ET-1 stimulated arachidonic acid release (AAR-A); assay type: cell-based; settings: ET-1 0.3 nM
Method: as §1, §2

IC50 [1] [nM] | IC50 [2] [nM] | IC50 [3] [nM] | IC50 [4] [nM] | Compound
380 | 2400 | 830 | 320 | CC[C@H](C)[C@H](NC(=O)[C@H](CC(=O)O)NC(=O)[C@H](CC(C)C)NC(=O)[C@H](N)C1c2ccccc2Sc2ccccc21)C(=O)N[C@H](C(=O)N[C@@H](Cc1c[nH]c2ccccc12)C(=O)O)[C@@H](C)CC [Example 13, D-Txg-Leu-Asp-Ile-Ile-Trp] (HELM PEPTIDE1{[N[C@@H](C(=O)[*:2])C1c2ccccc2Sc2ccccc21].L.D.I.I.W}$$$$V2.0)
930 |  | 50 |  | CC[C@H](C)[C@H](NC(=O)[C@H](CC(=O)O)NC(=O)[C@H](CC(C)C)NC(=O)[C@@H](NC(C)=O)C1c2ccccc2Oc2ccccc21)C(=O)N[C@H](C(=O)N[C@@H](Cc1c[nH]c2ccccc12)C(=O)O)[C@@H](C)CC [Example 9, Ac-L-Oxn-Leu-Asp-Ile-Ile-Trp] (HELM PEPTIDE1{[ac].[O=C([C@@H](N[*:1])C1c2ccccc2Oc2ccccc21)[*:2]].L.D.I.I.W}$$$$V2.0)
3000 |  | 2500 | 2360 | CC[C@H](C)[C@H](NC(=O)[C@H](CC(=O)O)NC(=O)[C@H](CC(C)C)NC(=O)[C@@H](N)C1c2ccccc2CCc2ccccc21)C(=O)N[C@H](C(=O)N[C@@H](Cc1c[nH]c2ccccc12)C(=O)O)[C@@H](C)CC [Example 3, L-Bhg-Leu-Asp-Ile-Ile-Trp] (HELM PEPTIDE1{[N[C@H](C(=O)[*:2])C1c2ccccc2CCc2ccccc21].L.D.I.I.W}$$$$V2.0)
40 |  |  |  | CC[C@H](C)[C@H](NC(=O)[C@H](CC(=O)O)NC(=O)[C@H](CCCN=C(N)N)NC(=O)[C@H](NC(C)=O)C1c2ccccc2CCc2ccccc21)C(=O)N[C@H](C(=O)N[C@@H](Cc1c[nH]c2ccccc12)C(=O)O)[C@@H](C)CC [Example 14, Ac-D-Bhg-Arg-ASp-Ile-Ile-Trp] (HELM PEPTIDE1{[ac].[O=C([C@H](N[*:1])C1c2ccccc2CCc2ccccc21)[*:2]].R.D.I.I.W}$$$$V2.0)
550 |  | 120 |  | CC[C@H](C)[C@H](NC(=O)[C@H](CC(=O)O)NC(=O)[C@H](CC(C)C)NC(=O)[C@H](NC(C)=O)C1c2ccccc2Oc2ccccc21)C(=O)N[C@H](C(=O)N[C@@H](Cc1c[nH]c2ccccc12)C(=O)O)[C@@H](C)CC [Example 10, Ac-D-Oxn-Leu-Asp-Ile-Ile-Trp] (HELM PEPTIDE1{[ac].[O=C([C@H](N[*:1])C1c2ccccc2Oc2ccccc21)[*:2]].L.D.I.I.W}$$$$V2.0)

Further lines, the compound ahead of its results:

Compound | IC50 [1] [nM] | IC50 [2] [nM] | IC50 [3] [nM] | IC50 [4] [nM]
CC[C@H](C)[C@H](NC(=O)[C@@H](NC(=O)[C@H](CC(=O)O)N(C)C(=O)[C@H](CC(C)C)NC(=O)[C@H](NC(C)=O)C1c2ccccc2CCc2ccccc21)[C@@H](C)CC)C(=O)N[C@@H](Cc1c[nH]c2ccccc12)C(=O)O [Example 15, Ac-D-Bhg-Leu-N-MeAsp-Ile-Ile-Trp] (HELM PEPTIDE1{[ac].[O=C([C@H](N[*:1])C1c2ccccc2CCc2ccccc21)[*:2]].L.[meD].I.I.W}$$$$V2.0) | 1900 |  |  | 
CC[C@H](C)[C@H](NC(=O)[C@H](CC(=O)O)NC(=O)[C@H](CC(C)C)NC(=O)[C@H](NC(C)=O)C1c2ccccc2Sc2ccccc21)C(=O)N[C@H](C(=O)N[C@@H](Cc1c[nH]c2ccccc12)C(=O)O)[C@@H](C)CC [Example 5, Ac-D-Txg-Leu-Asp-Ile-Ile-Trp] (HELM PEPTIDE1{[ac].[O=C([C@H](N[*:1])C1c2ccccc2Sc2ccccc21)[*:2]].L.D.I.I.W}$$$$V2.0) | 180 | 62 | 18 | 50
CC[C@H](C)[C@H](NC(=O)[C@H](CC(=O)O)NC(=O)[C@H](CC(C)C)NC(=O)[C@@H](NC(C)=O)C1c2ccccc2Sc2ccccc21)C(=O)N[C@H](C(=O)N[C@@H](Cc1c[nH]c2ccccc12)C(=O)O)[C@@H](C)CC [Example 12, Ac-L-Txg-Leu-Asp-Ile-Ile-Trp] (HELM PEPTIDE1{[ac].[O=C([C@@H](N[*:1])C1c2ccccc2Sc2ccccc21)[*:2]].L.D.I.I.W}$$$$V2.0) | 2100 |  | 1500 | 
CC[C@H](C)[C@H](NC(=O)[C@H](CC(=O)O)NC(=O)[C@H](CC(C)C)NC(=O)[C@@H](N)C1c2ccccc2Sc2ccccc21)C(=O)N[C@H](C(=O)N[C@@H](Cc1c[nH]c2ccccc12)C(=O)O)[C@@H](C)CC [Example 11, L-Txg-Leu-Asp-Ile-Ile-Trp] (HELM PEPTIDE1{[N[C@H](C(=O)[*:2])C1c2ccccc2Sc2ccccc21].L.D.I.I.W}$$$$V2.0) | 2100 |  | 4500 | 
CC[C@H](C)[C@H](NC(=O)[C@H](Cc1ccccc1)NC(=O)[C@H](CC(=O)O)NC(=O)[C@H](CC(C)C)NC(=O)[C@H](NC(C)=O)C1c2ccccc2CCc2ccccc21)C(=O)N[C@@H](Cc1c[nH]c2ccccc12)C(=O)O [Example 17, Ac-D-Bhg-Leu-Asp-Phe-Ile-Trp] (HELM PEPTIDE1{[ac].[O=C([C@H](N[*:1])C1c2ccccc2CCc2ccccc21)[*:2]].L.D.F.I.W}$$$$V2.0) | 30 |  | 68 | 
CC[C@H](C)[C@H](NC(=O)[C@H](CC(=O)O)NC(=O)[C@H](CCCNC(=N)N)NC(=O)[C@H](NC(C)=O)C1c2ccccc2CCc2ccccc21)C(=O)N[C@H](C(=O)N[C@@H](Cc1cn(C=O)c2ccccc12)C(=O)O)[C@@H](C)CC [Example 18, Ac-D-Bhg-Arg-Asp-Ile-Ile-Trp(For)] (Ac-[dGly(5-dibenzosuberyl)]RDIIW(For)-OH) | 4900 |  | 79 | 
CC[C@H](C)[C@H](NC(=O)[C@H](CC(=O)O)NC(=O)[C@H](CC(C)C)NC(=O)[C@@H](NC(C)=O)C1c2ccccc2CCc2ccccc21)C(=O)N[C@H](C(=O)N[C@@H](Cc1c[nH]c2ccccc12)C(=O)O)[C@@H](C)CC [Example 4, Ac-L-Bhg-Leu-Asp-Ile-Ile-Trp] (HELM PEPTIDE1{[ac].[O=C([C@@H](N[*:1])C1c2ccccc2CCc2ccccc21)[*:2]].L.D.I.I.W}$$$$V2.0) | 710 |  |  | 
